SMILES strings stand for the structures.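 All cell lines were grown in 96-well plates and treated with compound for 48 hours. GI50 is the concentration that inhibits growth by half. TGI marks complete inhibition of growth.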

Among the test systems are CCRF-CEM leukemia; LOX IMVI melanoma; MOLT-4 leukemia; NCI-H23 lung; RPMI-8226 leukemia; SF-539 CNS; SK-OV-3 ovarian; SR leukemia; SNB-19 CNS; PC-3 prostate.
Holding throughout (test): DTP human tumour cell line panel, 48 h

One may read the TGI as the concentration at which net growth stops. Read a low TGI as more potent growth arrest. For the compound `COc1ccc(/C=N/NC(=O)NCCNCCO)cc1`, the TGI in the test on CCRF-CEM leukemia, with LOX IMVI melanoma, in the test with MOLT-4 leukemia, in the test on NCI-H23 lung, in the test on RPMI-8226 leukemia and with SF-539 CNS was > 100 µM throughout. Moreover, the TGI in the test with SK-OV-3 ovarian and in the test on SR leukemia was > 100 µM in each case.
In the case of `Cc1c2cc[n+](C)cc2c(C)c2c1[nH]c1ccc(OC(C)(C)C)cc12`, the TGI in the test with CCRF-CEM leukemia, with LOX IMVI melanoma, in the test on MOLT-4 leukemia, in the test with NCI-H23 lung, in the test with RPMI-8226 leukemia and with SF-539 CNS was > 100 µM throughout. Further, the TGI in the test on SK-OV-3 ovarian and in the test with SR leukemia was > 100 µM throughout.
With `O=C(C#Cc1ccccc1)Nc1ccccc1CC(c1c[nH]c2ccccc12)c1c[nH]c2ccccc12`, the TGI was found to be 20 µM with CCRF-CEM leukemia; 43.6 µM in the test on LOX IMVI melanoma; 34.2 µM with MOLT-4 leukemia; 37.1 µM in the test with NCI-H23 lung; 16.8 µM with RPMI-8226 leukemia; 30.1 µM in the test on SF-539 CNS. Moreover, the TGI in the test with SK-OV-3 ovarian and in the test on SNB-19 CNS was > 100 µM each time.
As for `Nc1nc2c(nnn2C2C=C(CO)C(O)C2O)c(=O)[nH]1` (centres undefined), the TGI in the test with CCRF-CEM leukemia, with LOX IMVI melanoma, in the test with MOLT-4 leukemia, in the test on NCI-H23 lung, in the test on SF-539 CNS and in the test on SK-OV-3 ovarian was > 100 µM in each case. In addition, the total growth inhibition concentration (TGI) with SNB-19 CNS and in the test with SR leukemia was > 100 µM each time.
As for `C#CCN(Cc1ccc2nc(-c3ccccc3)c(Cl)nc2c1)c1ccc(Cl)c(Cl)c1`, the TGI in the test with CCRF-CEM leukemia, in the test on LOX IMVI melanoma, in the test on MOLT-4 leukemia, in the test on NCI-H23 lung, in the test with SF-539 CNS and in the test on SK-OV-3 ovarian was > 100 µM in each case. Besides, the TGI with SNB-19 CNS and with SR leukemia was > 100 µM in each case.
For the compound `CCN1CC2(CO)CCC(OC)C34C5CC6C(OC)CC(O)(C5C6OC)C(O)(C(OC)C23)C14` (centres undefined), the concentration for total growth inhibition (TGI) in the test with CCRF-CEM leukemia, in the test with LOX IMVI melanoma, in the test on MOLT-4 leukemia, in the test on NCI-H23 lung, with RPMI-8226 leukemia and in the test on SF-539 CNS was > 375 µM each time. The TGI with SK-OV-3 ovarian and with SNB-19 CNS was > 375 µM throughout.
For the compound `Cn1cnc([N+](=O)[O-])c1Sc1nnc(-c2ccc(Cl)cc2)n1C`, the TGI with CCRF-CEM leukemia was 22 µM; in the test with LOX IMVI melanoma, 20.6 µM; in the test with MOLT-4 leukemia, 66.1 µM; with NCI-H23 lung, 32.1 µM; in the test on RPMI-8226 leukemia, 71.3 µM; in the test with SF-539 CNS it was 37.4 µM. Moreover, the figures for the TGI in the test on SK-OV-3 ovarian, in the test on SNB-19 CNS and with SR leukemia were > 100 µM, > 100 µM and 33.7 µM, respectively.
As to `CCN(CC)CCNC(=O)C1COc2ccc(-c3cc(=O)c4ccccc4o3)cc2O1` (centres undefined), the TGI with CCRF-CEM leukemia was 68.6 µM; in the test with LOX IMVI melanoma, 31.7 µM; in the test on MOLT-4 leukemia, 57.9 µM; in the test with NCI-H23 lung, 60.3 µM; in the test with RPMI-8226 leukemia, 55.2 µM; in the test on SF-539 CNS, 30 µM. Also, the results for the TGI in the test with SK-OV-3 ovarian and with SNB-19 CNS were 47 µM and 59.9 µM, respectively.
As a reminder, the GI50 is the concentration giving 50% growth inhibition. For the compound `O=C(/C=C/c1cc2ccccc2[nH]c1=O)c1ccc(O)cc1`, the GI50 with CCRF-CEM leukemia was 2380 nM; in the test on LOX IMVI melanoma it was 2470 nM; with MOLT-4 leukemia it was 3.04 µM; with NCI-H23 lung it was 3.18 µM; in the test with PC-3 prostate, 5.39 µM; in the test with RPMI-8226 leukemia it was 3.2 µM. Further, the GI50 in the test on SF-539 CNS is 2550 nM; with SNB-19 CNS, 4.59 µM. For the same compound, the TGI with CCRF-CEM leukemia is > 100 µM; in the test on LOX IMVI melanoma, 12.7 µM; in the test on MOLT-4 leukemia, 9.91 µM; with NCI-H23 lung, 20 µM; in the test on PC-3 prostate, 55.3 µM; in the test with RPMI-8226 leukemia, 24.8 µM. Also, the TGI worked out at 8.64 µM in the test with SF-539 CNS and 18 µM with SNB-19 CNS.
In the case of `CCOC1=C2N=C(C(CC)c3ccc(F)cc3)N=C2C(=O)c2ccccc21` (centres undefined), the TGI is > 100 µM in the test on CCRF-CEM leukemia; 29.7 µM in the test on LOX IMVI melanoma; > 86.2 µM in the test with MOLT-4 leukemia; 70.2 µM in the test on NCI-H23 lung; > 88.5 µM with RPMI-8226 leukemia; 21.6 µM in the test with SF-539 CNS. Moreover, the TGI in the test on SK-OV-3 ovarian is > 100 µM; with SNB-19 CNS, > 100 µM; with SR leukemia it was 89.2 µM.
For `C#CCN1C(=O)CN2C(Cl)(Cl)C2(c2ccccc2)c2cc(Cl)ccc21` (centres undefined), the TGI in the test with CCRF-CEM leukemia was > 100 µM; in the test on LOX IMVI melanoma, > 100 µM; in the test on MOLT-4 leukemia it was 57.4 µM; with NCI-H23 lung, > 100 µM; with RPMI-8226 leukemia, > 100 µM; in the test with SR leukemia, > 100 µM.
`Nc1ccc2ncc(NCc3ccc(F)cc3)nc2c1`: the TGI in the test on CCRF-CEM leukemia, with LOX IMVI melanoma, in the test on MOLT-4 leukemia, in the test on NCI-H23 lung, with RPMI-8226 leukemia and in the test on SF-539 CNS was > 100 µM throughout. For the same compound, the TGI in the test on SK-OV-3 ovarian, in the test with SNB-19 CNS and with SR leukemia was > 100 µM throughout.
Consider `O=C(NC1CCCCC1)N1CCNC1=S`, for which the TGI in the test on CCRF-CEM leukemia, in the test with LOX IMVI melanoma, in the test with MOLT-4 leukemia, with NCI-H23 lung, in the test on RPMI-8226 leukemia and with SF-539 CNS was > 100 µM each time. Moreover, the total growth inhibition concentration (TGI) with SK-OV-3 ovarian and in the test with SR leukemia was > 100 µM throughout.
On to `Cn1c(SCc2ccc([N+](=O)[O-])cc2)nnc1C12CC3CC(CC(C3)C1)C2`, for which the TGI in the test with CCRF-CEM leukemia, in the test with LOX IMVI melanoma, with MOLT-4 leukemia, with NCI-H23 lung, with PC-3 prostate and in the test with RPMI-8226 leukemia was > 10 µM in each case. The TGI with SF-539 CNS, with SK-OV-3 ovarian and in the test with SNB-19 CNS was > 10 µM each time.
Turning to `O=C1C2=C(c3ccccc31)C(c1ccc([N+](=O)[O-])cc1)NC(=S)N2` (centres undefined), the TGI with CCRF-CEM leukemia, in the test with MOLT-4 leukemia, in the test with NCI-H23 lung, with RPMI-8226 leukemia, with SF-539 CNS and in the test on SK-OV-3 ovarian was > 100 µM in each case. For the same compound, in the test on SNB-19 CNS, the TGI was > 100 µM.

The values above are taken from PubChem BioAssay (NCI).
